According to PubChem BioAssay (NCI):
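Method: 48-hour compound exposure of cells in 96-well plates, five concentrations, linear interpolation of endpoints. The concentration for full growth arrest is given as TGI.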

Key:
Test in all cases: DTP human tumour cell line panel, 48 h
786-0 renal = test system: 786-0 renal
A498 renal = test system: A498 renal
A549 NSCLC = test system: A549 NSCLC
ACHN renal = test system: ACHN renal
CCRF-CEM leukemia = test system: CCRF-CEM leukemia
COLO 205 colon = test system: COLO 205 colon
DLD-1 colon = test system: DLD-1 colon
DMS 114 small cell lung = test system: DMS 114 small cell lung
EKVX NSCLC = test system: EKVX NSCLC
HCC-2998 colon = test system: HCC-2998 colon
HCT-116 colon = test system: HCT-116 colon
HCT-15 colon = test system: HCT-15 colon
HL-60(TB) leukemia = test system: HL-60(TB) leukemia
HOP-18 NSCLC = test system: HOP-18 NSCLC
HOP-62 NSCLC = test system: HOP-62 NSCLC
HOP-92 NSCLC = test system: HOP-92 NSCLC
HT29 colon = test system: HT29 colon
IGROV1 ovarian = test system: IGROV1 ovarian
KM12 colon = test system: KM12 colon
KM20L2 colon = test system: KM20L2 colon
LOX IMVI melanoma = test system: LOX IMVI melanoma
LXFL 529 NSCLC = test system: LXFL 529 NSCLC
M14 melanoma = test system: M14 melanoma
M19-MEL melanoma = test system: M19-MEL melanoma
MALME-3M melanoma = test system: MALME-3M melanoma
NCI-H226 lung = test system: NCI-H226 lung
NCI-H23 lung = test system: NCI-H23 lung
NCI-H460 lung = test system: NCI-H460 lung
NCI-H522 lung = test system: NCI-H522 lung
OVCAR-3 ovarian = test system: OVCAR-3 ovarian
OVCAR-4 ovarian = test system: OVCAR-4 ovarian
OVCAR-5 ovarian = test system: OVCAR-5 ovarian
OVCAR-8 ovarian = test system: OVCAR-8 ovarian
RPMI-8226 leukemia = test system: RPMI-8226 leukemia
RXF 393 renal = test system: RXF 393 renal
SF-268 CNS = test system: SF-268 CNS
SF-295 CNS = test system: SF-295 CNS
SF-539 CNS = test system: SF-539 CNS
SK-MEL-2 melanoma = test system: SK-MEL-2 melanoma
SK-MEL-28 melanoma = test system: SK-MEL-28 melanoma
SK-MEL-5 melanoma = test system: SK-MEL-5 melanoma
SK-OV-3 ovarian = test system: SK-OV-3 ovarian
SN12C renal = test system: SN12C renal
SNB-19 CNS = test system: SNB-19 CNS
SNB-75 CNS = test system: SNB-75 CNS
SNB-78 CNS = test system: SNB-78 CNS
SW-620 colon = test system: SW-620 colon
TK-10 renal = test system: TK-10 renal
U251 CNS = test system: U251 CNS
UACC-257 melanoma = test system: UACC-257 melanoma
UACC-62 melanoma = test system: UACC-62 melanoma
UO-31 renal = test system: UO-31 renal
XF 498 CNS = test system: XF 498 CNS
DMS 273 small cell lung = test system: DMS 273 small cell lung
RXF-631 renal = test system: RXF-631 renal
CAKI-1 renal = test system: CAKI-1 renal
K-562 leukemia = test system: K-562 leukemia
MOLT-4 leukemia = test system: MOLT-4 leukemia
SR leukemia = test system: SR leukemia

## CCCc1nn(C)c(CCC(=O)N(Cc2ccccc2)Cc2ccccc2)c1CC
786-0 renal
  TGI: > 100 µM
A498 renal
  TGI: > 100 µM
A549 NSCLC
  TGI: > 100 µM
ACHN renal
  TGI: > 100 µM
CCRF-CEM leukemia
  TGI: > 100 µM
COLO 205 colon
  TGI: > 100 µM
DLD-1 colon
  TGI: > 100 µM
DMS 114 small cell lung
  TGI: > 100 µM
EKVX NSCLC
  TGI: > 100 µM
HCC-2998 colon
  TGI: > 100 µM
HCT-116 colon
  TGI: > 100 µM
HCT-15 colon
  TGI: > 100 µM
HL-60(TB) leukemia
  TGI: > 100 µM
HOP-18 NSCLC
  TGI: > 100 µM
HOP-62 NSCLC
  TGI: > 100 µM
HOP-92 NSCLC
  TGI: > 100 µM
HT29 colon
  TGI: > 100 µM
IGROV1 ovarian
  TGI: > 100 µM
KM12 colon
  TGI: > 100 µM
KM20L2 colon
  TGI: > 100 µM
LOX IMVI melanoma
  TGI: > 100 µM
LXFL 529 NSCLC
  TGI: > 100 µM
M14 melanoma
  TGI: > 100 µM
M19-MEL melanoma
  TGI: > 100 µM
MALME-3M melanoma
  TGI: > 100 µM
NCI-H226 lung
  TGI: > 100 µM
NCI-H23 lung
  TGI: > 100 µM
NCI-H460 lung
  TGI: > 100 µM
NCI-H522 lung
  TGI: > 100 µM
OVCAR-3 ovarian
  TGI: > 100 µM
OVCAR-4 ovarian
  TGI: > 100 µM
OVCAR-5 ovarian
  TGI: > 100 µM
OVCAR-8 ovarian
  TGI: > 100 µM
RPMI-8226 leukemia
  TGI: > 100 µM
RXF 393 renal
  TGI: > 100 µM
SF-268 CNS
  TGI: > 100 µM
SF-295 CNS
  TGI: > 100 µM
SF-539 CNS
  TGI: > 100 µM
SK-MEL-2 melanoma
  TGI: > 100 µM
SK-MEL-28 melanoma
  TGI: > 100 µM
SK-MEL-5 melanoma
  TGI: > 100 µM
SK-OV-3 ovarian
  TGI: > 100 µM
SN12C renal
  TGI: > 100 µM
SNB-19 CNS
  TGI: > 100 µM
SNB-75 CNS
  TGI: > 100 µM
SNB-78 CNS
  TGI: > 100 µM
SW-620 colon
  TGI: > 100 µM
TK-10 renal
  TGI: > 100 µM
U251 CNS
  TGI: > 100 µM
UACC-257 melanoma
  TGI: > 100 µM
UACC-62 melanoma
  TGI: > 100 µM
UO-31 renal
  TGI: > 100 µM
XF 498 CNS
  TGI: > 100 µM

## CCCCCCCCCCCCCCCCCC(=O)NCC(COP(=O)([O-])OCC[N+](C)(C)C)OCC (stereo unspecified)
A549 NSCLC
  TGI: 33.4 µM
DMS 114 small cell lung
  TGI: 32.9 µM
DMS 273 small cell lung
  TGI: 0.284 µM
EKVX NSCLC
  TGI: 38.7 µM
KM20L2 colon
  TGI: 0.71 µM
LOX IMVI melanoma
  TGI: 44.6 µM
MALME-3M melanoma
  TGI: 36.1 µM
NCI-H23 lung
  TGI: 34.6 µM
RXF-631 renal
  TGI: 37.5 µM
SF-539 CNS
  TGI: 31.6 µM
SK-MEL-28 melanoma
  TGI: 32.5 µM
SK-MEL-5 melanoma
  TGI: 32.2 µM
SK-OV-3 ovarian
  TGI: 33.7 µM
SNB-19 CNS
  TGI: 0.326 µM
UACC-257 melanoma
  TGI: 33 µM
UO-31 renal
  TGI: 33.8 µM

## CCCCCCCCCCCCCP(=O)(OC)OC
786-0 renal
  TGI: 33.7 µM
A549 NSCLC
  TGI: 36.9 µM
ACHN renal
  TGI: 32.4 µM
CAKI-1 renal
  TGI: 32.7 µM
CCRF-CEM leukemia
  TGI: 38.8 µM
COLO 205 colon
  TGI: 34.2 µM
DLD-1 colon
  TGI: 30.5 µM
DMS 114 small cell lung
  TGI: 37 µM
DMS 273 small cell lung
  TGI: 33.1 µM
EKVX NSCLC
  TGI: 39.5 µM
HCC-2998 colon
  TGI: 36 µM
HCT-116 colon
  TGI: 33.8 µM
HCT-15 colon
  TGI: 31.6 µM
HL-60(TB) leukemia
  TGI: 32.9 µM
HOP-18 NSCLC
  TGI: 32.9 µM
HOP-62 NSCLC
  TGI: 28.2 µM
HOP-92 NSCLC
  TGI: 35 µM
HT29 colon
  TGI: 34.1 µM
IGROV1 ovarian
  TGI: 35.5 µM
K-562 leukemia
  TGI: 45.2 µM
KM12 colon
  TGI: 31.9 µM
KM20L2 colon
  TGI: 42.8 µM
LOX IMVI melanoma
  TGI: 35.3 µM
LXFL 529 NSCLC
  TGI: 33.5 µM
M14 melanoma
  TGI: 34.7 µM
M19-MEL melanoma
  TGI: 33.4 µM
MALME-3M melanoma
  TGI: 38.3 µM
MOLT-4 leukemia
  TGI: 36.5 µM
NCI-H226 lung
  TGI: 35.9 µM
NCI-H23 lung
  TGI: 35.6 µM
NCI-H460 lung
  TGI: 31.3 µM
NCI-H522 lung
  TGI: 26.6 µM
OVCAR-3 ovarian
  TGI: 34.6 µM
OVCAR-4 ovarian
  TGI: 34.6 µM
OVCAR-5 ovarian
  TGI: 30.6 µM
OVCAR-8 ovarian
  TGI: 31.9 µM
RPMI-8226 leukemia
  TGI: 50.7 µM
RXF 393 renal
  TGI: 48.4 µM
RXF-631 renal
  TGI: 32.5 µM
SF-295 CNS
  TGI: 37.1 µM
SF-539 CNS
  TGI: 30.9 µM
SK-MEL-2 melanoma
  TGI: 31.3 µM
SK-MEL-28 melanoma
  TGI: 39.1 µM
SK-MEL-5 melanoma
  TGI: 32.6 µM
SK-OV-3 ovarian
  TGI: 33.3 µM
SN12C renal
  TGI: 35 µM
SNB-19 CNS
  TGI: 38.6 µM
SNB-75 CNS
  TGI: 38.1 µM
SNB-78 CNS
  TGI: 35.5 µM
SR leukemia
  TGI: 38.4 µM
SW-620 colon
  TGI: 32.4 µM
TK-10 renal
  TGI: 31.6 µM
U251 CNS
  TGI: 32.9 µM
UACC-257 melanoma
  TGI: 33.7 µM
UACC-62 melanoma
  TGI: 32.2 µM
UO-31 renal
  TGI: 29.8 µM
XF 498 CNS
  TGI: 31.8 µM

## CC1(C)C2=CCCC(=O)[C@@]2(C)CC[C@@H]1O
786-0 renal
  TGI: > 100 µM
A549 NSCLC
  TGI: > 100 µM
ACHN renal
  TGI: > 100 µM
CAKI-1 renal
  TGI: > 100 µM
CCRF-CEM leukemia
  TGI: > 100 µM
COLO 205 colon
  TGI: > 100 µM
DLD-1 colon
  TGI: > 100 µM
DMS 114 small cell lung
  TGI: > 100 µM
DMS 273 small cell lung
  TGI: > 100 µM
EKVX NSCLC
  TGI: > 100 µM
HCC-2998 colon
  TGI: > 100 µM
HCT-116 colon
  TGI: > 100 µM
HL-60(TB) leukemia
  TGI: > 100 µM
HOP-18 NSCLC
  TGI: > 100 µM
HOP-62 NSCLC
  TGI: > 100 µM
HOP-92 NSCLC
  TGI: > 100 µM
HT29 colon
  TGI: > 100 µM
IGROV1 ovarian
  TGI: > 100 µM
K-562 leukemia
  TGI: > 100 µM
KM12 colon
  TGI: > 100 µM
KM20L2 colon
  TGI: > 100 µM
LOX IMVI melanoma
  TGI: > 100 µM
LXFL 529 NSCLC
  TGI: > 100 µM
M14 melanoma
  TGI: > 100 µM
M19-MEL melanoma
  TGI: > 100 µM
MOLT-4 leukemia
  TGI: > 100 µM
NCI-H226 lung
  TGI: > 100 µM
NCI-H23 lung
  TGI: > 100 µM
NCI-H460 lung
  TGI: > 100 µM
NCI-H522 lung
  TGI: > 100 µM
OVCAR-3 ovarian
  TGI: > 100 µM
OVCAR-4 ovarian
  TGI: > 100 µM
OVCAR-5 ovarian
  TGI: > 100 µM
OVCAR-8 ovarian
  TGI: > 100 µM
RPMI-8226 leukemia
  TGI: > 100 µM
RXF 393 renal
  TGI: > 100 µM
SF-268 CNS
  TGI: > 100 µM
SF-295 CNS
  TGI: > 100 µM
SF-539 CNS
  TGI: > 100 µM
SK-MEL-2 melanoma
  TGI: > 100 µM
SK-MEL-28 melanoma
  TGI: > 100 µM
SK-MEL-5 melanoma
  TGI: > 100 µM
SK-OV-3 ovarian
  TGI: > 100 µM
SN12C renal
  TGI: > 100 µM
SNB-19 CNS
  TGI: > 100 µM
SNB-75 CNS
  TGI: > 100 µM
SNB-78 CNS
  TGI: > 100 µM
SR leukemia
  TGI: > 100 µM
SW-620 colon
  TGI: > 100 µM
TK-10 renal
  TGI: > 100 µM
U251 CNS
  TGI: > 100 µM
UACC-257 melanoma
  TGI: > 100 µM
UACC-62 melanoma
  TGI: > 100 µM
UO-31 renal
  TGI: > 100 µM
XF 498 CNS
  TGI: > 100 µM
